Data published in US4971964A, “Pyridine derivatives” (priority 1988, dated 1990).

Legend:
dd male mice = test: Acute Toxicity Test (minimum lethal dose, MLD); type: in vivo; details: dd male mice, mortality after 7 days
Procedure: A test compound was given to dd male mice weighing 20±1 g (3 mice per group) per os. (p.o.; 300 mg/kg) or intraperitoneally (i.p.; 100 mg/kg). The mortality after 7 days from the administration was considered to determine the minimum lethal dose (MLD).

[1] = target: T1, thromboxane synthase (TXA2 synthase), bovine platelet microsome (Bos taurus, UniProt Q2KIG5); test: Test on Inhibition of TXA2 Biosynthesis (bovine platelet microsome, TXB2 by radioimmunoassay); type: biochemical; details: for IC50: bovine platelet microsome, pH 7.4, prostaglandin H2 substrate
T1 construct: bovine platelet microsome; from tissue; host or cells: bovine platelets (microsome)
T1 sequence (Q2KIG5 1-533): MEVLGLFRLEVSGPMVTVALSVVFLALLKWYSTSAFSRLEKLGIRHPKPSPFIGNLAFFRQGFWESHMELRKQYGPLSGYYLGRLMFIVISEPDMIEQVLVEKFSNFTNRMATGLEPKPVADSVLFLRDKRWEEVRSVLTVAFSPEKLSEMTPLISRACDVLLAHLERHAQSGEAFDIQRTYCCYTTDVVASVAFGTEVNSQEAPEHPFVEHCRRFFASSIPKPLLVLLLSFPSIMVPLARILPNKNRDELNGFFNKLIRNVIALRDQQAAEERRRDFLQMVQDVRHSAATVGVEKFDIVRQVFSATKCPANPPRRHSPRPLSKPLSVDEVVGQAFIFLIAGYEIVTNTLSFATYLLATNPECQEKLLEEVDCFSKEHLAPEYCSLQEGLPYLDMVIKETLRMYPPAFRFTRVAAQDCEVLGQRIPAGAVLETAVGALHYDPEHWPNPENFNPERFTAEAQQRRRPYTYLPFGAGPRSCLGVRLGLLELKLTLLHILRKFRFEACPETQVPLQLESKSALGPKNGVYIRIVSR
Procedure: A mixture of 70 μl of bovine platelet microsome [protein: 40 μg; 100 mM tris-HCl buffer (pH=7.4)] and 10 μl of a test compound solution (100 mM tris-HCl buffer containing 10% methanol) was allowed to stand at 0° C. for 5 minutes, and 20 μl of a prostaglandin H2 solution (100 mM tris-HCl buffer supplemented with acetone containing 0.1 nmol of prostaglandin H2) was added thereto as a substrate.
The amount of thromboxane B2 (TXB2) (stable degradation product of TXA2) produced in the system was determined by radioimmunoassay [F. A. Fitzpatrick et al., Methods in Enzymology, Vol. 86, p.286 (1982)].
Inhibition of TXB2 synthesis was evaluated by IC50 (50% inhibitory concentration) or percent inhibition as calculated from equation described below, and the results obtained are shown in Table 1. [formula]

[2] = test system: silver nitrate-induced arteriothromboembolia in male Wistar-Shizuoka rats; test: Test on Inhibition of Silver Nitrate-Induced Arteriothromboembolia in Rats; type: in vivo; details: for Number of Obstruction Case/Number of Experiments: control 23/26; for Percent Obstruction: control 88%
Excerpt: Male Wistar -Shizuoka rats weighing 270±20 g were anesthetized with urethane (1.5 g/kg) intraperitoneally. Each animal was fixed on its back, and a venous cannula and an arterial cannula were inserted into the left carotid vein and the left femoral artery, respectively. An abdominal incision was made, the intestinal tract was put aside so that the descending abdominal aorta could be seen, the surrounding connective tissues were removed, the descending aorta was detached to a length of about 1 cm, and the detached descending aorta was put on a globe of 8 cm in diameter. A solvent (0.1 ml; physiological saline containing 0.05N sodium hydroxide) or a drug solution (0.1 ml) in the solvent was injected via the cannulated carotid vein per 100 g of body weight. Three minutes later, a 30% silver nitrate aqueous solution was dropped on the detached descending abdominal aorta. Five minutes later, the globe was removed, and the affected site was washed three times with physiological saline to stop the reaction. After the elapse of 30 minutes from the stopping of the reaction, the blood pressure of the femoral artery was measured, and the pressure fall was taken as an indication of obstruction of the descending arterial. Significance of the difference in degree of the obstruction between the control group (only the solvent was administered) and the test group was assayed by X^2 -assay.

Row | Compound | Acute Toxicity (MLD) ip (dd male mice) | Acute Toxicity (MLD) po (dd male mice) | IC50 [1] | inhibition at 10 µM [1] | also measured
1 | O=C(O)CCCCCCC=C1c2ccccc2NC(=O)c2ccncc21 [Compound I-5, 11-(7-Carboxyheptylidene)-5,11-dihydropyrido[4,3-c][1]-benzazepin-5(6H)-one] | > 100 mg/kg | > 300 mg/kg | 130 nM |  | 
2 | O=C(O)CCCC/C=C1\c2ccccc2NC(=O)c2cnccc21 [Compound I-19Z, (Z)-5-(5-carboxypentylidene)-5,11-dihydropyrido[3,4-c][1]benzazepin-11(10H)-one] | > 100 mg/kg | > 300 mg/kg |  | 8% | 
3 | CSC1Nc2ccccc2C(=CCCCCC(=O)O)c2ccncc21 (stereo not drawn) [Compound I-22, 5-(5-Carboxypentylidene)-11-thiomethyl-5H-10,11-dihydropyrido[3,4-c][1]benzazepin] | > 100 mg/kg | > 300 mg/kg |  | 27% | 
4 | O=C(O)CCCCCC1c2ccccc2NC(=O)c2cnccc21 (stereo not drawn) [Compound I-21, 5-(5-Carboxypentyl)-5,11-dihydropyrido[3,4-c][1]benzazepin-11(10H)-one] | > 100 mg/kg | > 300 mg/kg |  | 47% | 
5 | COc1ccc2c(c1)C(=CCCCCC(=O)O)c1cnccc1C(=O)N2C [Compound I-3, 11-(5-Carboxypentylidene)-9-methoxy-6-methyl-5,11-dihydropyrido-[4,3-c][1]benzazepin-5(6H)-one] | > 100 mg/kg | > 300 mg/kg | 400 nM |  | 
6 | O=C(O)CCCC/C=C1\c2cnccc2C(=O)N(Cc2ccccc2)c2ccccc21 [Compound I-11Z, (Z)-6-benzyl-11-(5-carboxypentylidene)-5,11-dihydropyrido[4,3-c][1]benzazepin-5(6H)-one] | > 100 mg/kg | > 300 mg/kg | 41 nM |  | 
7 | CSC1=Nc2ccccc2C(=CCCCCC(=O)O)c2ccncc21 [Compound I-18, 5-(5-Carboxypentylidene)-11-thiomethyl-5H-pyrido[3,4-c][1]benzazepin] | > 100 mg/kg | > 300 mg/kg | 100 nM |  | 
8 | O=C(O)CCCCC=C1c2cnccc2CNc2ccccc21 [Compound I-15, 11-(5-Carboxypentylidene)-11H-5,6-dihydropyrido[4,3-c][1]benzazepin] | > 100 mg/kg | > 300 mg/kg | 22 nM |  | 
9 | O=C(O)CCCC/C=C1\c2ccccc2NC(=O)c2ccncc21 [Compound I-10E, (E)-11-(5-Carboxypentylidene)-5,11-dihydropyrido[4,3-c][1]benzazepin-5(6H)-one] | > 100 mg/kg | > 300 mg/kg | 21 nM |  | 
10 | O=C(O)CCCCC=C1c2ccncc2CNc2ccccc21 [Compound I-23, 5-(5-carboxypentylidene)-5H-10,11-dihydropyrido[3,4-c][1]benzazepin] | > 100 mg/kg | > 300 mg/kg |  | 27% | 
11 | O=C(O)CCCC/C=C1/c2ccccc2NC(=O)c2ccncc21 [Compound I-10Z, (Z)-11-(5-carboxypentylidene)-5,11-dihydropyrido[4,3-c][1]benzazepin-5(6H)-one] | > 100 mg/kg | > 300 mg/kg | 16 nM |  | 
12 | CSC1=Nc2ccccc2C(=CCCCCC(=O)O)c2cnccc21 [Compound I-6, 11-(5-Carboxypentylidene)-5-thiomethyl-11(H)-pyrido-[4,3-c][1]benzazpin] | > 100 mg/kg | > 300 mg/kg | 5 nM |  | 
13 | O=C(O)CCCC/C=C(\c1ccccc1)c1cccnc1 [CV-4151, reference compound] |  |  |  |  | Number of Obstruction Case/Number of Experiments ([2]; 0.3 mg/kg i.v.): 4/6; Percent Obstruction ([2]; 0.3 mg/kg i.v.): 67%; Number of Obstruction Case/Number of Experiments ([2]; 1.0 mg/kg i.v.): 4/8; Percent Obstruction ([2]; 1.0 mg/kg i.v.): 50%; Number of Obstruction Case/Number of Experiments ([2]; 3.0 mg/kg i.v.): 1/5; Percent Obstruction ([2]; 3.0 mg/kg i.v.): 20%
14 | C/C(=C\c1ccc(Cc2cccnc2)cc1)C(=O)O [OKY-1581, reference compound] |  |  |  |  | Number of Obstruction Case/Number of Experiments ([2]; 0.3 mg/kg i.v.): 5/5; Percent Obstruction ([2]; 0.3 mg/kg i.v.): 100%; Number of Obstruction Case/Number of Experiments ([2]; 1.0 mg/kg i.v.): 4/6; Percent Obstruction ([2]; 1.0 mg/kg i.v.): 67%; Number of Obstruction Case/Number of Experiments ([2]; 3.0 mg/kg i.v.): 0/3; Percent Obstruction ([2]; 3.0 mg/kg i.v.): 0%
15 | O=C(O)CCCC/C=C1/c2cnccc2NC(=O)c2ccccc21 [Compound I-14E, (E)-11-(5-Carboxypentylidene)-6,11-dihydropyrido[4,3-c][2]benzazepin-6(5H)-one] | > 100 mg/kg | > 300 mg/kg | 22 nM |  | 
16 | CN1C(=O)c2cnccc2/C(=C\CCCCC(=O)O)c2ccccc21 [Compound I-20E, (E)-5-(5-Carboxypentylidene)-10-methyl-5,11-dihydropyrido[3,4-c][1]benzazepin-11(10H)-one] | > 100 mg/kg | > 300 mg/kg |  | 10% | 
17 | O=C(O)CCCC/C=C1/c2cnccc2C(=O)N(Cc2ccccc2)c2ccccc21 [Compound I-11E, (E)-6-Benzyl-11-(5-carboxypentylidene)-5,11-dihydropyrido[4,3-c][1]benzazepin-5(6H)-one] | > 100 mg/kg | > 300 mg/kg | 8.3 nM |  | 
18 | O=C(O)CCCC=C1c2ccccc2NC(=O)c2ccncc21 [Compound I-4, 11-(4-Carboxybutylidene)-5,11-dihydropyrido[4,3-c][1]-benzazepin-5(6H)-one] | > 100 mg/kg | > 300 mg/kg | 250 nM |  | 
19 | CN1C(=O)c2cnccc2/C(=C/CCCCC(=O)O)c2ccccc21 [Compound I-20Z, (Z)-5-(5-carboxypentylidene)-10-methyl-5,11-dihydropyrido[3,4-c][1]benzazepin-11(10H)-one] | > 100 mg/kg | > 300 mg/kg |  | -23% | 
20 | Cc1cccc2c1NC(=O)c1ccncc1C2=CCCCCC(=O)O [Compound I-2, 11-(5-Carboxypentylidene)-7-methyl-5,11-dihydropyrido-[4,3-c][1]benzazepin-5(6H)-one] | > 100 mg/kg | > 300 mg/kg |  |  | inhibition at 0.1 µM ([1]; 0.1 μM (footnote *), read-out: Inhibition of TXA2 Biosynthesis, Percent inhibition at 0.1 μM): 41%
21 | C/C=C/C1=Cc2ccccc2/C(=C/CCCCC(=O)O)c2cnccc21 [Compound I-7, (Z)-11-(5-Carboxypentylidene)-5-[(E)-1-propen-1-yl]-(H)-pyrido[3,4-b]benzcycloheptene] | > 100 mg/kg | > 300 mg/kg | 21 nM |  | 
22 | COC1=Nc2ccncc2/C(=C\CCCCC(=O)O)c2ccccc21 [Compound I-13Z, (Z)-11-(5-carboxypentylidene)-6-methoxy-11H-pyrido[4,3-c][2]benzazepin] | > 100 mg/kg | > 300 mg/kg | 3.5 nM |  | 
23 | O=C(O)CCCC/C=C1/c2ccccc2NC(=O)c2cnccc21 [Compound I-19E, (E)-5-(5-Carboxypentylidene)-5,11-dihydropyrido[3,4-c][1]benzazepin-11(10H)-one] | > 100 mg/kg | > 300 mg/kg |  | 13% | 
